In US20260144890A1, “ANTIBODY DRUG CONJUGATE COMPRISING NMT INHIBITOR CONJUGATED TO AN ANTIBODY” (MyricX Pharma Limited, priority 2024, published 2026):
Read-outs that look alike come from different tables or passages of the source.

Tests used:
SU-DHL-10 cell line = assay: Cell cytotoxicity in SU-DHL-10 cell line (CTG, 72 h); format: cell-based; conditions: Homo sapiens, SU-DHL10, 72 h, 72 h treatment
Protocol: Certain NMT inhibitors were tested in the SU-DHL-10 cell line (human B cell lymphoma). Compounds which show efficacy in this assay are expected to be useful as agents for treating or preventing hyperproliferative disorders such as cancer.
Cells were seeded in 96-well microplates and treated with compounds or cisplatin (as a positive control) at 9 increasing concentrations in technical triplicate. […] On day 1, 90 μL of various cell suspensions with the number of cells ranging from 5000-8000 cells/well were seeded into wells of a 96-well plate (Corning). The number of cells to be seeded was previously determined. • 2. All 96-wells plates with cells were placed in an incubator overnight at 37° C. with 5% CO2. • 3. On day 2, cells were observed under a microscope ensuring the cells treated with vehicle control were in good condition. • 4. A dilution series of the test compounds and cisplatin were prepared at 10× the final concentrations required. 10 μL/well of 10× compound solution was added to the corresponding plates. The final volume was 100 μL/well for all the plates. […]
Luminescence was recorded using an EnVision Multi Label Reader. […]
(LumTest article=luminescence in test article treated well; LumNone treated=luminescence in vehicle treated well; LumMedium control=luminescence in a well containing only medium and no cells; LumNone treated−LumMedium control was set as 100%).

[1] = test system: BT474 breast cancer cells; assay: Orthotopic breast cancer xenograft model (BT474); format: in vivo, mouse
Protocol: During the study, body weights were measured three times weekly for all animals. Animals were given Diet Gel for the entire duration on the study.

[2] = test system: gastric cancer organoid GA0098B; assay: Gastric cancer organoid viability (CTG 3D), GA0098B; format: cell-based; parameters: AUC (area under curve): unit not given beside the values
Protocol: (§1) Day −1: Patient derived gastric cancer organoids (PDXOs) are sheared to uniform sizes and the required number of organoids are combined 1:1 with 50% Matrigel to produce the right size of the organoids to perform the screen.
(§2) Day 0: Organoid seeding • 1. Collect organoids from each well by adding 20 μl 100× Dispase solution to each well from a 6-well plate, which contains 2 ml of organoid medium. • 2. Put the plates back in the incubator, 37° C. for 30 min. • 3. Collect organoids from all wells and pipet through a pre-wet 100 μm filter into a 50 ml plastic tube. • 4. Once all wells have been filtered over 100 μm filters, filter the flow though over a pre-wet 20 μm filter. • 5. […]
(§3) • 10. Place screening plates back into the incubator before adding compounds and day 0 reading. […] One is for day 0 reading (TO) and the other for reading at the end point.
(§4) Day 0: Compounds treatment and Day 0 baseline CTG (cell titre glo) reading • 11. […] For day 0 reading plate, add 40 μL of CTG 3D per well and read luminescent signal on Envision plate reader.
(§5) Day 6: Endpoint CTG reading. • 1. Read assay plates for luminescent CTG signal at the end of the assays: add 40 μL of CTG 3D per well by Multidrop dispenser, mix the contents for 5 min on the plate shaker, and incubate the plates for 30 min at room temperature in dark. Read luminescent signal on Envision plate reader. […]

[3] = test system: gastric cancer organoid GA2109B; assay: Gastric cancer organoid viability (CTG 3D), GA2109B; format: cell-based; parameters: unit not given beside the values
Protocol: as §1, §2, §3, §4, §5

[4] = test system: gastric cancer organoid GA0060B; assay: Gastric cancer organoid viability (CTG 3D), GA0060B; format: cell-based; parameters: unit not given beside the values
Protocol: as §1, §2, §3, §4, §5

[5] = test system: gastric cancer organoid GA3055B; assay: Gastric cancer organoid viability (CTG 3D), GA3055B; format: cell-based; parameters: unit not given beside the values
Protocol: as §1, §2, §3, §4, §5

[6] = test system: gastric cancer organoid GA6833B; assay: Gastric cancer organoid viability (CTG 3D), GA6833B; format: cell-based; parameters: unit not given beside the values
Protocol: as §1, §2, §3, §4, §5

[7] = test system: gastric cancer organoid GA0091B; assay: Gastric cancer organoid viability (CTG 3D), GA0091B; format: cell-based; parameters: AUC (area under curve): unit not given beside the values
Protocol: as §1, §2, §3, §4, §5

[8] = test system: gastric cancer organoid GA6866B; assay: Gastric cancer organoid viability (CTG 3D), GA6866B; format: cell-based; parameters: unit not given beside the values
Protocol: as §1, §2, §3, §4, §5

[9] = test system: gastric cancer organoid GA6877B; assay: Gastric cancer organoid viability (CTG 3D), GA6877B; format: cell-based; parameters: unit not given beside the values
Protocol: as §1, §2, §3, §4, §5

[10] = test system: gastric cancer organoid GA3102B; assay: Gastric cancer organoid viability (CTG 3D), GA3102B; format: cell-based; parameters: unit not given beside the values
Protocol: as §1, §2, §3, §4, §5

[11] = test system: gastric cancer organoid GA6891B; assay: Gastric cancer organoid viability (CTG 3D), GA6891B; format: cell-based; parameters: AUC (area under curve): unit not given beside the values
Protocol: as §1, §2, §3, §4, §5

[12] = test system: gastric cancer organoid GA6894B; assay: Gastric cancer organoid viability (CTG 3D), GA6894B; format: cell-based; parameters: AUC (area under curve): unit not given beside the values
Protocol: as §1, §2, §3, §4, §5

[13] = test system: gastric cancer organoid GA0087B; assay: Gastric cancer organoid viability (CTG 3D), GA0087B; format: cell-based; parameters: AUC (area under curve): unit not given beside the values
Protocol: as §1, §2, §3, §4, §5

[14] = test system: gastric cancer organoid GA0429B; assay: Gastric cancer organoid viability (CTG 3D), GA0429B; format: cell-based; parameters: unit not given beside the values
Protocol: as §1, §2, §3, §4, §5

[15] = test system: gastric cancer organoid GA6815B; assay: Gastric cancer organoid viability (CTG 3D), GA6815B; format: cell-based; parameters: AUC (area under curve): unit not given beside the values
Protocol: as §1, §2, §3, §4, §5

[16] = test system: gastric cancer organoid GA2434B; assay: Gastric cancer organoid viability (CTG 3D), GA2434B; format: cell-based; parameters: unit not given beside the values
Protocol: as §1, §2, §3, §4, §5

[17] = test system: gastric cancer organoid GA0119B; assay: Gastric cancer organoid viability (CTG 3D), GA0119B; format: cell-based; parameters: AUC (area under curve): unit not given beside the values
Protocol: as §1, §2, §3, §4, §5

LNCaP tumours = assay: LNCaP prostate cancer xenograft model; conditions: for Day 28 tumour volume (mean ± SEM) / Tumour growth inhibition (TGI, %): IV, Q7D (x3); for Tumour growth inhibition (TGI, %): day 28
Protocol: A total of 84 male NOD SCID mice aged 5-8 weeks and weighing 25-30 g were used for the study.
• Duration of observation: 35 days. • Dosing volume: 5 mL/kg for all IV doses

[18] = test system: VCaP human prostate cancer xenograft; assay: VCaP prostate cancer xenograft model; format: in vivo, mouse
Protocol: In this study, 144 mice were inoculated subcutaneously in the right front flank region with 1×10^7 viable VCaP tumour cells resuspended in 0.1 mL of PBS mixed with Matrigel (1:1) for tumour development on Study Day −20. 80 mice were assigned to 8 treatment groups when tumour volumes averaged ˜162.16 mm^3 on Study Day 0. Dosing commenced the following day and all animals were dosed intravenously with ADC Example 4, ifinatamab-deruxtecan (ifinatamab-Dxd) or unconjugated ifinatamab. All mice received two doses of test agent, on Study Day 1 and Study Day 8. The study was terminated on Study Day 30. • The 8 groups were assigned as follows: […]

[19] = test system: JIMT-1 human breast xenograft; format: in vivo
From the text: The study was terminated on the Study Day 60.

[20] = test system: JIMT-1 human breast xenograft; assay: JIMT1 breast cancer xenograft model (Balb/c nude mice, ADC Example 1); format: in vivo, mouse
Protocol: In this study, 72 mice were inoculated subcutaneously in the right front flank region with 1×10^7 viable JIMT-1 tumour cells resuspended in Matrigel (1:1) on Study Day −15. When tumours reached a tumour volume of approximately 120-150 mm^3, 60 mice with the most similarly sized tumours were randomly assigned to 6 treatment groups on Study Day 0. […] The study was terminated on Study Day 58. The dosing regimen was as follows:
The body weight of all mice in each group was measured and recorded three times weekly throughout the duration of the study. Moreover, the tumour volume was measured (mm^3) and recorded using digital calipers three times weekly throughout the duration of the study. In particular, the length, width, and depth of the tumour were each measured and used to calculate tumour volume (mm^3). The results are shown in FIG. 58, FIG. 59, and FIG. 60.

CNCc1cnc2ccc(-c3ccc(F)c(F)c3OCCc3c(C(O)C(C)(C)C)nn(C)c3C)cn12 (single isomer, unassigned) [compound 13, 1-(4-(2-(2,3-difluoro-6-(3-((methylamino)methyl)imidazo[1,2-a]pyridin-6-yl)phenoxy)ethyl)-1,5-dimethyl-1H-pyrazol-3-yl)-2,2-dimethylpropan-1-ol]
IC50 (SU-DHL-10 cell line): 0.7 nM

CNCc1cnc2ccc(-c3ccc(F)c(F)c3OCCc3c(C(O)C(C)(C)C)nn(C)c3C)cn12 (stereo not shown) [NMT inhibitor 1, 1-(4-(2-(2,3-difluoro-6-(3-((methylamino)methyl)imidazo[1,2-a]pyridin-6-yl)phenoxy)ethyl)-1,5-dimethyl-1H-pyrazol-3-yl)-2,2-dimethylpropan-1-ol]
tumour size ([1]; 2.0 mg/kg, 2 days dosing then 5 day holiday, stopped at day 13): reduced tumour size | body weights of mice ([1]; trastuzumab and ADC 2.5 and 5 mg/kg, NMT inhibitor 1 2 mg/kg): decreased significantly

CN[C@@H]1C[C@H]2O[C@@](C)([C@@H]1OC)n1c3ccccc3c3c4c(c5c6ccccc6n2c5c31)C(=O)NC4 [Staurosporine]
AUC (area under curve) [2]: 239.6 | IC50 [2]: 22.1 nM | AUC (area under curve) [3]: 233.3136 | AUC (area under curve) [4]: 85.1 | AUC (area under curve) [5]: 144.7132 | AUC (area under curve) [6]: 158.1701 | AUC (area under curve) [7]: 199.9 | IC50 [7]: 22.2 nM | AUC (area under curve) [8]: 201.1356 | AUC (area under curve) [9]: 175.472 | AUC (area under curve) [10]: 200.7667 | AUC (area under curve) [11]: 174.0868 | IC50 [11]: 9 nM | AUC (area under curve) [12]: 230.6577 | IC50 [12]: 8.5 nM | AUC (area under curve) [13]: 113.2 | IC50 [13]: 2.9 nM | AUC (area under curve) [14]: 170.8729 | AUC (area under curve) [15]: 194.3428 | IC50 [15]: 15.8 nM | AUC (area under curve) [16]: 226.6809 | AUC (area under curve) [17]: 212.2837 | IC50 [17]: 8.9 nM

ifinatamab
LNCaP tumour volume compared to vehicle (LNCaP tumours; 5 mg/kg): no significant effect | Day 28 tumour volume (mean ± SEM) (LNCaP tumours; 5 mg/kg): 551.4 ± 73.1 mm^3 | Tumour growth inhibition (TGI, %) (LNCaP tumours; 5 mg/kg): 30.6% | LNCaP tumour volume compared to vehicle (LNCaP tumours; 10 mg/kg): no significant effect | Day 28 tumour volume (mean ± SEM) (LNCaP tumours; 10 mg/kg): 666.56 ± 103.2 mm^3 | Tumour growth inhibition (TGI, %) (LNCaP tumours; 10 mg/kg): 13.0% | tumour volume compared to vehicle alone ([18]; 2.5 mg/kg): no significant difference | ΔTGI (Study Day 17) ([18]; 2.5 mg/kg QW x 2 weeks IV): 8.47% | tumour volume compared to vehicle alone ([18]; 5 mg/kg): no significant difference | ΔTGI (Study Day 17) ([18]; 5 mg/kg QW x 2 weeks IV): 12.44%

sacituzumab
tumour volume compared to vehicle alone ([19]; 2.5 mg/kg): no significant difference | ΔTGI (Study Day 28) ([19]; 2.5 mg/kg QW x 2 weeks IV): 12.11% | tumour volume compared to vehicle alone ([19]; 5 mg/kg): significant decrease | ΔTGI (Study Day 28) ([19]; 5 mg/kg QW x 2 weeks IV): 14.44%

sacituzumab govitecan
tumour volume compared to vehicle alone ([19]; 2.5 mg/kg): significant decrease | ΔTGI (Study Day 28) ([19]; 2.5 mg/kg QW x 2 weeks IV): 13.13% | tumour volume compared to vehicle alone ([19]; 5 mg/kg): significant decrease | ΔTGI (Study Day 28) ([19]; 5 mg/kg QW x 2 weeks IV): 23.39% | efficacy of treatment ([19]; Group 4, 5 mg/kg): only partially efficacious

trastuzumab emtansine
tumour volume compared to vehicle alone ([20]; 5 mg/kg IV on Study Days 0, 7, 28 and 35, agent alone): no decrease in tumour volume | mice that completely responded (of 10) ([20]; 5 mg/kg IV, agent alone): no mice | mice that partially responded (of 10) ([20]; 5 mg/kg IV, agent alone): no mice

B1: ifinatamab-DXd (conjugate, chains of the INN, looked up)
VH: QVQLVQSGAEVKKPGSSVKVSCKASGYTFTNYVMHWVRQAPGQGLEWMGYINPYNDDVKYNEKFKGRVTITADESTSTAYMELSSLRSEDTAVYYCARWGYYGSPLYYFDYWGQGTLVTVSS
VL: EIVLTQSPATLSLSPGERATLSCRASSRLIYMHWYQQKPGQAPRPLIYATSNLASGIPARFSGSGSGTDFTLTISSLEPEDFAVYYCQQWNSNPPTFGQGTKVEIK
modifications: deruxtecan (DXd) payload
LNCaP tumour volume compared to vehicle (LNCaP tumours; 5 mg/kg): slowed the growth of LNCaP tumours to a lesser extent | Day 28 tumour volume (mean ± SEM) (LNCaP tumours; 5 mg/kg): 364.6 ± 51.7 mm^3 | Tumour growth inhibition (TGI, %) (LNCaP tumours; 5 mg/kg): 58.8% | LNCaP tumour volume compared to vehicle (LNCaP tumours; 10 mg/kg): significantly reduced the mean volume of LNCaP tumours | Day 28 tumour volume (mean ± SEM) (LNCaP tumours; 10 mg/kg): 259.5 ± 50.3 mm^3 | Tumour growth inhibition (TGI, %) (LNCaP tumours; 10 mg/kg): 75.0% | tumour volume compared to vehicle alone ([18]; 2.5 mg/kg): no significant difference | ΔTGI (Study Day 17) ([18]; 2.5 mg/kg QW x 2 weeks IV): 5.24% | tumour volume compared to vehicle alone ([18]; 5 mg/kg): significantly higher tumour volume | ΔTGI (Study Day 17) ([18]; 5 mg/kg QW x 2 weeks IV): 2.86%
